According to paper PMC5605198, “MELK is not necessary for the proliferation of basal-like breast cancer cells” (eLife, 2017):
Like-named read-outs stand apart in the source and are kept apart here.

Key:
[1] = system: panel of breast cancer cell lines; assay: 3-day proliferation assays, panel summary; type: cell-based
From the text: As shRNA-mediated knockdown of MELK was previously reported to inhibit the proliferation of BBC cells, we next tested whether pharmacological inhibition of MELK would have similar effects. We treated a panel of breast cancer cell lines, including MDA-MB-468 and ZR-75-1 cells, with HTH-01-091 and other MELK inhibitors; despite our focus on basal-like breast cancers, we included luminal cell lines for comparison. […] We evaluated the inhibitors in longer-term (7-day) proliferation assays and still observed the same trend, and no clear difference between the breast cancer subtypes (Table 4). We authenticated our MDA-MB-468 line by short tandem repeat analysis, and repeated the proliferation assays using MDA-MB-468 cells from a second source to confirm the modest antiproliferative effects of the selective inhibitors (Table 4).

ERK2 = ERK2 (Homo sapiens, UniProt P28482); assay: ICKP radiometric kinase assay; type: biochemical; conditions: read-out: % AR (% kinase activity remaining)
JNK1 = JNK1 (Homo sapiens, UniProt P45983); assay: ICKP radiometric kinase assay; type: biochemical; conditions: read-out: % AR (% kinase activity remaining)
p38 beta = p38 beta (Homo sapiens, UniProt Q15759); assay: ICKP radiometric kinase assay; type: biochemical; conditions: read-out: % AR (% kinase activity remaining)
ERK8 = ERK8 (Homo sapiens, UniProt Q8TD08); assay: ICKP radiometric kinase assay; type: biochemical; conditions: read-out: % AR (% kinase activity remaining)
RSK2 = RSK2 (Homo sapiens, UniProt P51812); assay: ICKP radiometric kinase assay; type: biochemical; conditions: read-out: % AR (% kinase activity remaining)
SGK1 = SGK1 (Homo sapiens, UniProt O00141); assay: ICKP radiometric kinase assay; type: biochemical; conditions: read-out: % AR (% kinase activity remaining)
S6K1 = S6K1 (Homo sapiens, UniProt P23443); assay: ICKP radiometric kinase assay; type: biochemical; conditions: read-out: % AR (% kinase activity remaining)
ROCK 2 = ROCK 2 (Homo sapiens, UniProt O75116); assay: ICKP radiometric kinase assay; type: biochemical; conditions: read-out: % AR (% kinase activity remaining)
CAMK1 = CAMK1 (Homo sapiens, UniProt Q14012); assay: ICKP radiometric kinase assay; type: biochemical; conditions: read-out: % AR (% kinase activity remaining)
DAPK1 = DAPK1 (Homo sapiens, UniProt P53355); assay: ICKP radiometric kinase assay; type: biochemical; conditions: read-out: % AR (% kinase activity remaining)
CHK1 = CHK1 (Homo sapiens, UniProt O14757); assay: ICKP radiometric kinase assay; type: biochemical; conditions: read-out: % AR (% kinase activity remaining)
MARK2 = MARK2 (Homo sapiens, UniProt Q7KZI7); assay: ICKP radiometric kinase assay; type: biochemical; conditions: read-out: % AR (% kinase activity remaining)
SIK2 = SIK2 (Homo sapiens, UniProt Q9H0K1); assay: ICKP radiometric kinase assay; type: biochemical; conditions: read-out: % AR (% kinase activity remaining)
SIK3 = SIK3 (Homo sapiens, UniProt Q9Y2K2); assay: ICKP radiometric kinase assay; type: biochemical; conditions: read-out: % AR (% kinase activity remaining)
DYRK1A = DYRK1A (Homo sapiens, UniProt Q13627); assay: ICKP radiometric kinase assay; type: biochemical; conditions: read-out: % AR (% kinase activity remaining)
DYRK2 = DYRK2 (Homo sapiens, UniProt Q92630); assay: ICKP radiometric kinase assay; type: biochemical; conditions: read-out: % AR (% kinase activity remaining)
IKK epsilon = IKK epsilon (Homo sapiens, UniProt Q14164); assay: ICKP radiometric kinase assay; type: biochemical; conditions: read-out: % AR (% kinase activity remaining)
SRPK1 = SRPK1 (Homo sapiens, UniProt Q96SB4); assay: ICKP radiometric kinase assay; type: biochemical; conditions: read-out: % AR (% kinase activity remaining)
EF2K = EF2K (Homo sapiens, UniProt O00418); assay: ICKP radiometric kinase assay; type: biochemical; conditions: read-out: % AR (% kinase activity remaining)
PAK4 = PAK4 (Homo sapiens, UniProt O96013); assay: ICKP radiometric kinase assay; type: biochemical; conditions: read-out: % AR (% kinase activity remaining)
MST3 = MST3 (Homo sapiens, UniProt Q9Y6E0); assay: ICKP radiometric kinase assay; type: biochemical; conditions: read-out: % AR (% kinase activity remaining)
TESK1 = TESK1 (Homo sapiens, UniProt Q15569); assay: ICKP radiometric kinase assay; type: biochemical; conditions: read-out: % AR (% kinase activity remaining)
ASK1 = ASK1 (Homo sapiens, UniProt Q99683); assay: ICKP radiometric kinase assay; type: biochemical; conditions: read-out: % AR (% kinase activity remaining)
OSR1 = OSR1 (Homo sapiens, UniProt O95747); assay: ICKP radiometric kinase assay; type: biochemical; conditions: read-out: % AR (% kinase activity remaining)
MPSK1 = MPSK1 (Homo sapiens, UniProt O75716); assay: ICKP radiometric kinase assay; type: biochemical; conditions: read-out: % AR (% kinase activity remaining)
Lck = Lck (Homo sapiens, UniProt P06239); assay: ICKP radiometric kinase assay; type: biochemical; conditions: read-out: % AR (% kinase activity remaining)
YES1 = YES1 (Homo sapiens, UniProt P07947); assay: ICKP radiometric kinase assay; type: biochemical; conditions: read-out: % AR (% kinase activity remaining)
BTK = BTK (Homo sapiens, UniProt Q06187); assay: ICKP radiometric kinase assay; type: biochemical; conditions: read-out: % AR (% kinase activity remaining)
EPH-A4 = EPH-A4 (Homo sapiens, UniProt P54764); assay: ICKP radiometric kinase assay; type: biochemical; conditions: read-out: % AR (% kinase activity remaining)
EPH-B1 = EPH-B1 (Homo sapiens, UniProt P54762); assay: ICKP radiometric kinase assay; type: biochemical; conditions: read-out: % AR (% kinase activity remaining)
FGF-R1 = FGF-R1 (Homo sapiens, UniProt P11362); assay: ICKP radiometric kinase assay; type: biochemical; conditions: read-out: % AR (% kinase activity remaining)
IR = IR (Homo sapiens, UniProt P06213); assay: ICKP radiometric kinase assay; type: biochemical; conditions: read-out: % AR (% kinase activity remaining)
PDGFRA = PDGFRA (Homo sapiens, UniProt P16234); assay: ICKP radiometric kinase assay; type: biochemical; conditions: read-out: % AR (% kinase activity remaining)
PINK = PINK (Tribolium castaneum, UniProt D6WMX4); assay: ICKP radiometric kinase assay; conditions: read-out: % AR (% kinase activity remaining)
MDA-MB-468 = assay: Cell proliferation assay (CellTiter-Glo); conditions: Homo sapiens
MCF7 = assay: Cell proliferation assay (CellTiter-Glo); conditions: Homo sapiens
T-47D = assay: Cell proliferation assay (CellTiter-Glo); conditions: Homo sapiens, T47D
[2] = MDA-MB-468, 72 h, read-out: 3-day antiproliferative IC50
[3] = MDA-MB-468, 168 h, read-out: 7-day antiproliferative IC50
[4] = MCF7, 72 h, read-out: 3-day antiproliferative IC50
[5] = MCF7, 168 h, read-out: 7-day antiproliferative IC50
[6] = 72 h, read-out: 3-day antiproliferative IC50
[7] = 168 h, read-out: 7-day antiproliferative IC50

Sequence of S6K1 (P23443 whole entry): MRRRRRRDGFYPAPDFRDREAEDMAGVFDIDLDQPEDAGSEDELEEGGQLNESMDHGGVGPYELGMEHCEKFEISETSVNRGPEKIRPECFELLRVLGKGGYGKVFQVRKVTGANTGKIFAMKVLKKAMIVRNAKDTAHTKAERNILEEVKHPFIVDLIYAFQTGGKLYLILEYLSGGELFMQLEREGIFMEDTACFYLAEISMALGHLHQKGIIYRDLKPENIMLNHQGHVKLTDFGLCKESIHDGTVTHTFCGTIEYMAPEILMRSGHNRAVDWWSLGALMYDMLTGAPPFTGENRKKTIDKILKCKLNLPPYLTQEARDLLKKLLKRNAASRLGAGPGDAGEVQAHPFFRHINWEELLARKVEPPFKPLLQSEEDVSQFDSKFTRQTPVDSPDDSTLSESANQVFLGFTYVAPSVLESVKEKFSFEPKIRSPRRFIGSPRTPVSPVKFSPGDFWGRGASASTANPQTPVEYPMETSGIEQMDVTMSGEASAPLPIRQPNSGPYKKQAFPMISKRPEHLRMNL
Sequence of BTK (Q06187 whole entry): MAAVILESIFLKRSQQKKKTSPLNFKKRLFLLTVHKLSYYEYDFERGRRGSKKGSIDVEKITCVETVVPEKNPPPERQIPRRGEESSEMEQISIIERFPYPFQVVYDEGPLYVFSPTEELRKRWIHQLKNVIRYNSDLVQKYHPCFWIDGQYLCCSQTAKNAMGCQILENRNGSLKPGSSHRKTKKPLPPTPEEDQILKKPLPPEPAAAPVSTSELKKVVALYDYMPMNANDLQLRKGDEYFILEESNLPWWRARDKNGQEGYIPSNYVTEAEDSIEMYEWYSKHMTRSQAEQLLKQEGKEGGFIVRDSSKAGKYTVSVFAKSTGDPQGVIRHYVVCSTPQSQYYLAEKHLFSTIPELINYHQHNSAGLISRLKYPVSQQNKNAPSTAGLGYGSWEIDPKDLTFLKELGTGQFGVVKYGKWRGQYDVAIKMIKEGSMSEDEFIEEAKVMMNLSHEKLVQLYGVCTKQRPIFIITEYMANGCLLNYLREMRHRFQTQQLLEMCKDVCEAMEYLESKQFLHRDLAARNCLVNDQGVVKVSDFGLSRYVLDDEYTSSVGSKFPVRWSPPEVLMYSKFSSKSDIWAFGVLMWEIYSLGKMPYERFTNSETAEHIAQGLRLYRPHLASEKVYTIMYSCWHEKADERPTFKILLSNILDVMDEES
Sequence of ASK1 (Q99683 whole entry): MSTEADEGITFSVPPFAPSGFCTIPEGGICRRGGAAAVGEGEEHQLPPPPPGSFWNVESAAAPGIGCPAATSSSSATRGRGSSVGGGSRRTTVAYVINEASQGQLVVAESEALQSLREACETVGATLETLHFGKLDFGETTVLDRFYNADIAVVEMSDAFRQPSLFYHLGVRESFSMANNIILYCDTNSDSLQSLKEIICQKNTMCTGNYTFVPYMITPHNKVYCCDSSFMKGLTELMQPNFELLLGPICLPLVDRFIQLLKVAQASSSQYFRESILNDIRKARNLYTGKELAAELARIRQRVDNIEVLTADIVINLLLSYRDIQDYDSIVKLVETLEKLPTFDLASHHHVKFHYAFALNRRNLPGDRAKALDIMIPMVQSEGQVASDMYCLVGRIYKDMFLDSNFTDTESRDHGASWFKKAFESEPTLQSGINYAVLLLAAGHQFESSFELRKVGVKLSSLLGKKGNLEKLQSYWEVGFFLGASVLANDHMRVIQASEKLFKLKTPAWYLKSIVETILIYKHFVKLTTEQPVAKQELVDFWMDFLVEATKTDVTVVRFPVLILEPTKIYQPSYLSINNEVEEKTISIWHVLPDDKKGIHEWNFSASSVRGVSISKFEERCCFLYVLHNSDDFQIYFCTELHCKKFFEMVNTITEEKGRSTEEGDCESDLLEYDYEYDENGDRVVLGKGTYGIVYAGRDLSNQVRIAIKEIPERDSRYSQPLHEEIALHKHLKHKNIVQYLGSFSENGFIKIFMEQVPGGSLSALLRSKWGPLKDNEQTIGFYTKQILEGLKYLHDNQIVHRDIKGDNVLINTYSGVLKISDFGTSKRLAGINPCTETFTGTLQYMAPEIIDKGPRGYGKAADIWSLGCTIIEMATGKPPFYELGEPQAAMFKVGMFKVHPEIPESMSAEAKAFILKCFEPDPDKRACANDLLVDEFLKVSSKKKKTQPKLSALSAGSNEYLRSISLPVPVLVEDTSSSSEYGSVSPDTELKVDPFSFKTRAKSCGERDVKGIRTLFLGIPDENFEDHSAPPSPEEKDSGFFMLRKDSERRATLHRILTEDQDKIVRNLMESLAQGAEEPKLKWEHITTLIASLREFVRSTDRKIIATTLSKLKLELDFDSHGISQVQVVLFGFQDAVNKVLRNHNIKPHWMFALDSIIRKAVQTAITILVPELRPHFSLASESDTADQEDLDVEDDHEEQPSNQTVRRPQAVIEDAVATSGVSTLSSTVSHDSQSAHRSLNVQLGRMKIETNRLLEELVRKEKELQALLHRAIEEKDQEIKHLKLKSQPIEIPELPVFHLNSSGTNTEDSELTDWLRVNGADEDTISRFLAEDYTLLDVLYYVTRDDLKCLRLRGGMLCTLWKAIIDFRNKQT
Sequence of SGK1 (O00141 whole entry): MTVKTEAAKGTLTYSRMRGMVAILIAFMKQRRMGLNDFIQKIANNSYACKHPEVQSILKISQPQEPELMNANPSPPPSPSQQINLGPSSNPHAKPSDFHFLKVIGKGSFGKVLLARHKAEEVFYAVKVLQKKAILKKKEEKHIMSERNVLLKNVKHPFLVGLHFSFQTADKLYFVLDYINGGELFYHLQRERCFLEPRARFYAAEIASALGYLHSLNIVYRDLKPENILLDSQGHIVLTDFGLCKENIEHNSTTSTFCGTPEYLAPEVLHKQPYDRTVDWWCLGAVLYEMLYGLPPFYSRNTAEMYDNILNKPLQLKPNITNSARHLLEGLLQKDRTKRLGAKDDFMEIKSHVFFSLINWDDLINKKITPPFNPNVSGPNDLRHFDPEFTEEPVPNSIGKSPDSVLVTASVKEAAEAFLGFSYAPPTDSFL
Sequence of EPH-B1 (P54762 18-984): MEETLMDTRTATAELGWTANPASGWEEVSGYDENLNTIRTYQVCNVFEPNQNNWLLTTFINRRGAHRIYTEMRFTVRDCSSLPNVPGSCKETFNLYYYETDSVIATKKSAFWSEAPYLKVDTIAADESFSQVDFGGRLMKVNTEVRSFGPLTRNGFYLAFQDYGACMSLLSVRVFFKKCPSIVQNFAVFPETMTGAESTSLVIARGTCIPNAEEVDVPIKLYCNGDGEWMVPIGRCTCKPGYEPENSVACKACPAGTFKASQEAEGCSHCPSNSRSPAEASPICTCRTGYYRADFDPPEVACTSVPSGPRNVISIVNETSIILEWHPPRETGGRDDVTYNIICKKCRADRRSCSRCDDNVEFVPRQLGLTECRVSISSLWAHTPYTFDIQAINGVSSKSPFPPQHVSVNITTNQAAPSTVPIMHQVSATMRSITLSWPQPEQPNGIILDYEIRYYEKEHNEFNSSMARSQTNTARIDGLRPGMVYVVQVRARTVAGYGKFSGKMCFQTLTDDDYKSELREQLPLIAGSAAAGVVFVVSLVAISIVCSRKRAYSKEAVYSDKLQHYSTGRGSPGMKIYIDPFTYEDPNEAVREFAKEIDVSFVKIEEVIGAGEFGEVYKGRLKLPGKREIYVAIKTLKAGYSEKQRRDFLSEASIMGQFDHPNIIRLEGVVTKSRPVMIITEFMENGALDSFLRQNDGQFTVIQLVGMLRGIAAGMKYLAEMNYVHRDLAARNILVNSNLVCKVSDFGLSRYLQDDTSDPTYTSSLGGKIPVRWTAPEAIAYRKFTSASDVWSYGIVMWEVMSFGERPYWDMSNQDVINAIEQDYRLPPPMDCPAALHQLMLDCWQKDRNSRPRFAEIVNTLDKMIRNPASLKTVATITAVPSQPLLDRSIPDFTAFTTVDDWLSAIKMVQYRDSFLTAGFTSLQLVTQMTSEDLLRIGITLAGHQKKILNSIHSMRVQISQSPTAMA
Sequence of JNK1 (P45983 whole entry): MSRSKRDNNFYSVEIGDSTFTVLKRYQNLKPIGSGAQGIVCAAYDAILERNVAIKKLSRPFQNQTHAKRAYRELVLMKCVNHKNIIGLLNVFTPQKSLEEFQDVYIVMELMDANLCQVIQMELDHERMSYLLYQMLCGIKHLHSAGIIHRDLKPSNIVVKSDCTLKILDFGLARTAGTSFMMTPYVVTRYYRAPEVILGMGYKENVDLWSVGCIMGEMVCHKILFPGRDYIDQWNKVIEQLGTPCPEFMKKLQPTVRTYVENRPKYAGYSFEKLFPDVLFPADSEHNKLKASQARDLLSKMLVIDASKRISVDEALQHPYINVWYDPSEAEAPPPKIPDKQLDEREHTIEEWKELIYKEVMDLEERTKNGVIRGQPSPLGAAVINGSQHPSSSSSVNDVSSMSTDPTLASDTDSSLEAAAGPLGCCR
Sequence of DYRK2 (Q92630 whole entry): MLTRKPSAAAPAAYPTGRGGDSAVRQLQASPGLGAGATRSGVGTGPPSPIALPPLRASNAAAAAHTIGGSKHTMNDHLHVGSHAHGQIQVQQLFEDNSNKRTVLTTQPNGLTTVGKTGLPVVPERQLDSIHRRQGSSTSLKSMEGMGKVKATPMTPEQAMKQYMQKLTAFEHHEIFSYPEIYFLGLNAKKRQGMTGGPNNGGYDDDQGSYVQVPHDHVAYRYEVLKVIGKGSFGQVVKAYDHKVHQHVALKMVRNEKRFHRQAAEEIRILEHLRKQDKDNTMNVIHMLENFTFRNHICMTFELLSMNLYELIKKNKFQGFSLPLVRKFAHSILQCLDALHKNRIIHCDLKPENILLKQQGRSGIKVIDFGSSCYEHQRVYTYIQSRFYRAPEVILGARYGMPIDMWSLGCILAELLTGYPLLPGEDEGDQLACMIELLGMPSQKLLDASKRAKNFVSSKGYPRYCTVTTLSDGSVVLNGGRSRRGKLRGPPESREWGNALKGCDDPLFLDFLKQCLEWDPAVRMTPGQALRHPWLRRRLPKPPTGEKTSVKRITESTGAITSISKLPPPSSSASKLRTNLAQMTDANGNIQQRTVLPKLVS

## CN(C)C[C@H]1CC[C@H](N2C(=O)NCc3cnc4ccc(-c5cc(Cl)c(O)c(Cl)c5)cc4c32)CC1 [HTH-01-091, 9-(3,5-dichloro-4-hydroxyphenyl)-1-(trans-4-((dimethylamino)methyl)cyclohexyl)-3,4-dihydropyrimido[5,4 c]quinolin-2(1H)-one]
[1]
  antiproliferative IC50 values, fold less potent than OTSSP167: at least 300 fold
ERK2
  remaining activity at 1 µM: 93%
JNK1
  remaining activity at 1 µM: 97%
p38 beta
  remaining activity at 1 µM: 85%
ERK8
  remaining activity at 1 µM: 24%
RSK2
  remaining activity at 1 µM: 62%
SGK1
  remaining activity at 1 µM: 72%
S6K1
  remaining activity at 1 µM: 81%
ROCK 2
  remaining activity at 1 µM: 82%
CAMK1
  remaining activity at 1 µM: 93%
DAPK1
  remaining activity at 1 µM: 15%
CHK1
  remaining activity at 1 µM: 86%
MARK2
  remaining activity at 1 µM: 94%
SIK2
  remaining activity at 1 µM: 79%
SIK3
  remaining activity at 1 µM: 83%
DYRK1A
  remaining activity at 1 µM: 23%
DYRK2
  remaining activity at 1 µM: 18%
IKK epsilon
  remaining activity at 1 µM: 92%
SRPK1
  remaining activity at 1 µM: 94%
EF2K
  remaining activity at 1 µM: 85%
PAK4
  remaining activity at 1 µM: 79%
MST3
  remaining activity at 1 µM: 93%
TESK1
  remaining activity at 1 µM: 95%
ASK1
  remaining activity at 1 µM: 90%
OSR1
  remaining activity at 1 µM: 93%
MPSK1
  remaining activity at 1 µM: 107%
Lck
  remaining activity at 1 µM: 35%
YES1
  remaining activity at 1 µM: 32%
BTK
  remaining activity at 1 µM: 45%
EPH-A4
  remaining activity at 1 µM: 63%
EPH-B1
  remaining activity at 1 µM: 122%
FGF-R1
  remaining activity at 1 µM: 82%
IR
  remaining activity at 1 µM: 100%
PDGFRA
  remaining activity at 1 µM: 35%
PINK
  remaining activity at 1 µM: 93%
MDA-MB-468; [2]
  IC50: 4000 nM
MDA-MB-468; [3]
  IC50: 2710 nM
MCF7; [4]
  IC50: 8750 nM
MCF7; [5]
  IC50: 4130 nM
T-47D; [6]
  IC50: 3870 nM
T-47D; [7]
  IC50: 780 nM

## CC(=O)c1cnc2ccc(-c3cc(Cl)c(O)c(Cl)c3)nc2c1N[C@H]1CC[C@H](CN(C)C)CC1 [OTSSP167]
[1]; 72 h, most cell lines tested, read-out: half maximal killing
  IC50: < 100 nM
ERK2
  remaining activity at 1 µM: 90%
JNK1
  remaining activity at 1 µM: 10%
p38 beta
  remaining activity at 1 µM: 6%
ERK8
  remaining activity at 1 µM: 1%
RSK2
  remaining activity at 1 µM: 1%
SGK1
  remaining activity at 1 µM: 12%
S6K1
  remaining activity at 1 µM: 2%
ROCK 2
  remaining activity at 1 µM: 49%
CAMK1
  remaining activity at 1 µM: 15%
DAPK1
  remaining activity at 1 µM: 1%
CHK1
  remaining activity at 1 µM: 11%
MARK2
  remaining activity at 1 µM: 23%
SIK2
  remaining activity at 1 µM: 2%
SIK3
  remaining activity at 1 µM: 4%
DYRK1A
  remaining activity at 1 µM: 1%
DYRK2
  remaining activity at 1 µM: 1%
IKK epsilon
  remaining activity at 1 µM: 2%
SRPK1
  remaining activity at 1 µM: 10%
EF2K
  remaining activity at 1 µM: 114%
PAK4
  remaining activity at 1 µM: 9%
MST3
  remaining activity at 1 µM: 5%
TESK1
  remaining activity at 1 µM: 51%
ASK1
  remaining activity at 1 µM: 7%
OSR1
  remaining activity at 1 µM: 45%
MPSK1
  remaining activity at 1 µM: 5%
Lck
  remaining activity at 1 µM: 0%
YES1
  remaining activity at 1 µM: 18%
BTK
  remaining activity at 1 µM: 7%
EPH-A4
  remaining activity at 1 µM: 1%
EPH-B1
  remaining activity at 1 µM: 11%
FGF-R1
  remaining activity at 1 µM: 4%
IR
  remaining activity at 1 µM: 2%
PDGFRA
  remaining activity at 1 µM: 20%
PINK
  remaining activity at 1 µM: 89%
MDA-MB-468; [2]
  IC50: 14 nM
MDA-MB-468; [3]
  IC50: 12 nM
MCF7; [4]
  IC50: 35 nM
MCF7; [5]
  IC50: 27 nM
T-47D; [6]
  IC50: 106 nM
T-47D; [7]
  IC50: 9 nM
